# Reference: patent publication US10570129B2 (Zoetis Services LLC, priority 2015, dated 2020)
# Experiments:
# Haemonchus contortus L3 = assay: microbe, parasite or virus in culture; type: cell-based; conditions: Haemonchus contortus, 96 h, read-out: HcL3 Minimal Effective Concentration (MEC)
# D. immitis microfilariae = assay: Dirofilaria immitis, microfilariae (DiMF) in vitro motility assay; type: cell-based; conditions: Dirofilaria immitis, 72 h, read-out: DiMF minimally effective dose (MEC)
structure (smiles),measurement,setting,value
"O=C(NCc1ccnc(Cl)c1)n1c2c(c3cc(F)c(OC(F)(F)F)cc31)CN(C/C=C/c1ccc(F)cc1)CC2 [Example 471, (E)-N-((2-chloropyridin-4-yl)methyl)-8-fluoro-2-(3-(4-fluorophenyl)allyl)-7-(trifluoromethoxy)-1,2,3,4-tetrahydro-5H-pyrido[4,3-b]indole-5-carboxamide]",minimal effective concentration,Haemonchus contortus L3,0.3 µM
same,minimal effective concentration,D. immitis microfilariae,10 µM
"N#Cc1ccc(/C=C/CN2CCc3c(c4cc(Cl)ccc4n3C(=O)NCc3ccnc(Cl)c3)C2)cc1 [Example 241, (E)-8-chloro-N-((2-chloropyridin-4-yl)methyl)-2-(3-(4-cyanophenyl)allyl)-1,2,3,4-tetrahydro-5H-pyrido[4,3-b]indole-5-carboxamide]",minimal effective concentration,Haemonchus contortus L3,0.4 µM
same,minimal effective concentration,D. immitis microfilariae,13.5 µM
"O=C(NCc1ccnc(Cl)c1)n1c2c(c3cc(Br)ccc31)CN(C/C=C/c1ccc(OC(F)(F)F)cc1)CC2 [Example 187, (E)-8-bromo-N-((2-chloropyridin-4-yl)methyl)-2-(3-(4-(trifluoromethoxy)phenyl)allyl)-1,2,3,4-tetrahydro-5H-pyrido[4,3-b]indole-5-carboxamide]",minimal effective concentration,Haemonchus contortus L3,1.3 µM
same,minimal effective concentration,D. immitis microfilariae,> 100 µM
"N#Cc1ccc(/C=C/CN2CCc3c(c4cc(C(F)(F)F)ccc4n3C(=O)NCc3ccnc(Cl)c3)C2)cc1 [Example 331, (E)-N-((2-chloropyridin-4-yl)methyl)-2-(3-(4-cyanophenyl)allyl)-8-(trifluoromethyl)-1,2,3,4-tetrahydro-5H-pyrido[4,3-b]indole-5-carboxamide]",minimal effective concentration,Haemonchus contortus L3,0.7 µM
same,minimal effective concentration,D. immitis microfilariae,24 µM
"N#Cc1ccc2c(c1)c1c(n2C(=O)NCc2ccnc(F)c2)CCN(C/C=C/c2ccc(Br)c(F)c2)C1 [Example 105, (E)-2-(3-(4-bromo-3-fluorophenyl)allyl)-8-cyano-N-((2-fluoropyridin-4-yl)methyl)-1,2,3,4-tetrahydro-5H-pyrido[4,3-b]indole-5-carboxamide]",minimal effective concentration,Haemonchus contortus L3,0.3 µM
same,minimal effective concentration,D. immitis microfilariae,> 100 µM
"O=C(NCc1ccnc(Cl)c1)n1c2c(c3cc(F)c(Cl)cc31)CN(C/C=C/c1ccc(Cl)cc1)CC2 [Example 304, (E)-7-chloro-2-(3-(4-chlorophenyl)allyl)-N-((2-chloropyridin-4-yl)methyl)-8-fluoro-1,2,3,4-tetrahydro-5H-pyrido[4,3-b]indole-5-carboxamide]",minimal effective concentration,Haemonchus contortus L3,0.3 µM
same,minimal effective concentration,D. immitis microfilariae,18.2 µM
"COc1ccc(/C=C/CN2CCc3c(c4cc(OC(F)(F)F)ccc4n3C(=O)NCc3ccnc(Cl)c3)C2)cc1 [Example 394, (E)-N-((2-chloropyridin-4-yl)methyl)-2-(3-(4-methoxyphenyl)allyl)-8-(trifluoromethoxy)-1,2,3,4-tetrahydro-5H-pyrido[4,3-b]indole-5-carboxamide]",minimal effective concentration,Haemonchus contortus L3,1 µM
same,minimal effective concentration,D. immitis microfilariae,6.9 µM
"N#Cc1ccc(/C=C/CN2CCc3c(c4c(Br)cccc4n3C(=O)NCc3ccnc(Cl)c3)C2)cc1 [Example 442, (E)-9-bromo-N-((2-chloropyridin-4-yl)methyl)-2-(3-(4-cyanophenyl)allyl)-1,2,3,4-tetrahydro-5H-pyrido[4,3-b]indole-5-carboxamide]",minimal effective concentration,Haemonchus contortus L3,10 µM
same,minimal effective concentration,D. immitis microfilariae,10 µM
"O=C(NCc1ccnc(Cl)c1)n1c2c(c3c(Cl)cccc31)CN(C/C=C/c1ccc(Cl)c(Cl)c1)CC2 [Example 216, (E)-9-chloro-N-((2-chloropyridin-4-yl)methyl)-2-(3-(3,4-dichlorophenyl)allyl)-1,2,3,4-tetrahydro-5H-pyrido[4,3-b]indole-5-carboxamide]",minimal effective concentration,Haemonchus contortus L3,1 µM
same,minimal effective concentration,D. immitis microfilariae,18.2 µM
"N#Cc1ccc2c3c(n(C(=O)NCc4ccnc(F)c4)c2c1)CCN(C/C=C/c1cc(F)cc(OC(F)(F)F)c1)C3 [Example 54, (E)-7-cyano-2-(3-(3-fluoro-5-(trifluoromethoxy)phenyl)allyl)-N-((2-fluoro-pyridin-4-yl)methyl)-1,2,3,4-tetrahydro-5H-pyrido[4,3-b]indole-5-carboxamide]",minimal effective concentration,Haemonchus contortus L3,> 100 µM
same,minimal effective concentration,D. immitis microfilariae,10 µM
"O=C(NCc1ccnc(Cl)c1)n1c2c(c3cc(F)c(OC(F)(F)F)cc31)CN(C/C=C/c1ccc(Cl)cc1)CC2 [Example 469, (E)-2-(3-(4-chlorophenyl)allyl)-N-((2-chloropyridin-4-yl)methyl)-8-fluoro-7-(trifluoromethoxy)-1,2,3,4-tetrahydro-5H-pyrido[4,3-b]indole-5-carboxamide]",minimal effective concentration,Haemonchus contortus L3,1 µM
same,minimal effective concentration,D. immitis microfilariae,> 100 µM
"Cc1ccc2c(c1)c1c(n2C(=O)NCc2ccnc(Cl)c2)CCN(C/C=C/c2ccc(C(F)(F)F)cc2)C1 [Example 435, (E)-N-((2-chloropyridin-4-yl)methyl)-8-methyl-2-(3-(4-(trifluoromethyl)-phenyl)allyl)-1,2,3,4-tetrahydro-5H-pyrido[4,3-b]indole-5-carboxamide]",minimal effective concentration,Haemonchus contortus L3,5.7 µM
same,minimal effective concentration,D. immitis microfilariae,5.7 µM
"O=C(NCc1ccnc(Cl)c1)n1c2c(c3cc(OC(F)(F)F)c(F)cc31)CN(C/C=C/c1ccc(Cl)cc1)CC2 [Example 495, (E)-2-(3-(4-chlorophenyl)allyl)-N-((2-chloropyridin-4-yl)methyl)-7-fluoro-8-(trifluoromethoxy)-1,2,3,4-tetrahydro-5H-pyrido[4,3-b]indole-5-carboxamide]",minimal effective concentration,Haemonchus contortus L3,1 µM
same,minimal effective concentration,D. immitis microfilariae,10 µM
"O=C(NCc1ccnc(F)c1)n1c2c(c3cc(Cl)ccc31)CN(C/C=C/c1ccc(Cl)c(Cl)c1)CC2 [Example 261, (E)-8-chloro-2-(3-(3,4-dichlorophenyl)allyl)-N-((2-fluoropyridin-4-yl)methyl)-1,2,3,4-tetrahydro-5H-pyrido[4,3-b]indole-5-carboxamide]",minimal effective concentration,Haemonchus contortus L3,1 µM
same,minimal effective concentration,D. immitis microfilariae,10 µM
"N#Cc1ccc2c3c(n(C(=O)NCc4ccnc(F)c4)c2c1)CCN(C/C=C/c1ccc(Cl)c(F)c1F)C3 [Example 53, (E)-2-(3-(4-chloro-2,3-difluorophenyl)allyl)-7-cyano-N-((2-fluoropyridin-4-yl)methyl)-1,2,3,4-tetrahydro-5H-pyrido[4,3-b]indole-5-carboxamide]",minimal effective concentration,Haemonchus contortus L3,5.7 µM
same,minimal effective concentration,D. immitis microfilariae,> 100 µM
"O=C(NCc1ccnc(Cl)c1)n1c2c(c3cc(OC(F)(F)F)ccc31)CN(C/C=C/c1ccc(C(F)(F)F)cc1)CC2 [Example 396, (E)-N-((2-chloropyridin-4-yl)methyl)-8-(trifluoromethoxy)-2-(3-(4-(trifluoro-methyl)phenyl)allyl)-1,2,3,4-tetrahydro-5H-pyrido[4,3-b]indole-5-carboxamide]",minimal effective concentration,Haemonchus contortus L3,3.3 µM
same,minimal effective concentration,D. immitis microfilariae,1 µM
"O=C(NCc1ccnc(F)c1)n1c2c(c3ccc(OC(F)(F)F)cc31)CN(C/C=C/c1ccc(F)c(F)c1)CC2 [Example 376, (E)-2-(3-(3,4-difluorophenyl)allyl)-N-((2-fluoropyridin-4-yl)methyl)-7-(trifluoromethoxy)-1,2,3,4-tetrahydro-5H-pyrido[4,3-b]indole-5-carboxamide]",minimal effective concentration,Haemonchus contortus L3,0.5 µM
same,minimal effective concentration,D. immitis microfilariae,10 µM
"O=C(NCc1ccnc(Cl)c1)n1c2c(c3cc(Cl)c(Cl)cc31)CN(C/C=C/c1ccc(Cl)cc1)CC2 [Example 280, (E)-7,8-dichloro-2-(3-(4-chlorophenyl)allyl)-N-((2-chloropyridin-4-yl)methyl)-1,2,3,4-tetrahydro-5H-pyrido[4,3-b]indole-5-carboxamide]",minimal effective concentration,Haemonchus contortus L3,0.3 µM
same,minimal effective concentration,D. immitis microfilariae,> 100 µM
